The text below walks through data of patent US8463552B1, “Methods for medicinal dosage determination and diagnosis” (priority 2005, dated 2013).

Each structure is given as a SMILES string.

Series [1] deals with brain volumes of interest (BOLD signal). Kind of series: BOLD-sensitive fMRI of anesthetized monkey during i.v. infusion of SKF82958. Type of series: in vivo, M. fascicularis. As to conditions: 0.1 mg/kg total i.v. infusion from 10 to 15 min; one VOI in one subject; 1.5% isoflurane; FIG. 12. An excerpt: To determine how the noise levels in the simulation data just described correspond to realistic biological data, we acquired data using BOLD-sensitive fMRI imaging of an anesthetized monkey with administration of the dopamine agonist SKF82958. Experiments were approved in advance by the Washington University Animal Studies Committee and due care was exercised to prevent discomfort to the animal. During imaging sessions the animal's health was monitored by veterinary staff from the Washington University Division of Comparative Medicine. Two male M. fascicularis monkeys were studied. Imaging was done while the animals were ventilated with 1.5% isoflurane in oxygen. We obtained repeated whole-brain BOLD-sensitive fMRI images at a repetition interval of one every 3 seconds over a 40-minute period. At 10 minutes into the imaging session a steady-rate, slow intravenous infusion of the dopamine D1 agonist. SKF82958 was commenced finishing at 15 minutes, with a total administered dose of 0.1 mg/kg. […] Volumes of interest (VOIs) were traced on structural brain images acquired at the same session. These included left and right caudate, left and right putamen, striatum collectively, whole brain, and a midbrain region. Time-activity curves from each VOI were extracted and submitted to the computer method described above. […]

Series [2] relates to whole-brain and regional blood flow. The settings on record: total administered dose 0.1 mg/kg; cited from earlier work.

Turning to `C=CCN1CCc2c(cc(O)c(O)c2Cl)C(c2ccccc2)C1` (stereo not shown) [SKF82958], the “Emax (magnitude of BOLD response in VOI time-activity curve)” value in series [1] is given as “at least 20”. Further, in series [2], the “effect on whole-brain mean quantitative blood flow” value was “does not affect”, the “effects on regional blood flow consistent with local neuronal activation” value is given as “produces reliable effects” and the safety of dose entry is “safe”.
